{"source": "patent US20070254863A1", "about": "(priority 2006, published 2007)", "key": {"[1]": {"biological_target": "human cannabinoid CB2 receptor (Homo sapiens, UniProt P34972)", "sequence (P34972 whole entry)": "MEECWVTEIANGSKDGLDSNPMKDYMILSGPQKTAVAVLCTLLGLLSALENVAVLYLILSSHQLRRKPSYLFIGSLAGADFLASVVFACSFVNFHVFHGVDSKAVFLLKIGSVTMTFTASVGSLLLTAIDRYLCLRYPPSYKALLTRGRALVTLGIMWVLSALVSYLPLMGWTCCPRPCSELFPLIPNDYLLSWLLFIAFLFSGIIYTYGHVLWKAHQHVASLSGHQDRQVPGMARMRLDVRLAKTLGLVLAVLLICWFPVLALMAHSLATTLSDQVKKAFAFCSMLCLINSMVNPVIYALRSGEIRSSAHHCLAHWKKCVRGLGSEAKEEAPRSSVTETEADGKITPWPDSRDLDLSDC", "test": "biochemical", "assay_type": "binding", "description": "3. In Vitro Binding Affinity of the Test Compounds to CB2 Receptors\nAfter incubation of a freshly prepared cell membrane preparation with the [^3H]-ligand, with or without the addition of the compounds described herein, separation of bound and free ligand is performed by filtration over glass-fiber filters. Radioactivity on the filter is measured by liquid scintillation counting."}, "hamster SUR1": {"biological_target": "T1, hamster SUR1 (Cricetus cricetus, UniProt Q09427)", "T1 construct": "expressed in transfected cells; host or cells: COS-1 cells, transient (pcDNA vector)", "T1 sequence (Q09427 whole entry)": "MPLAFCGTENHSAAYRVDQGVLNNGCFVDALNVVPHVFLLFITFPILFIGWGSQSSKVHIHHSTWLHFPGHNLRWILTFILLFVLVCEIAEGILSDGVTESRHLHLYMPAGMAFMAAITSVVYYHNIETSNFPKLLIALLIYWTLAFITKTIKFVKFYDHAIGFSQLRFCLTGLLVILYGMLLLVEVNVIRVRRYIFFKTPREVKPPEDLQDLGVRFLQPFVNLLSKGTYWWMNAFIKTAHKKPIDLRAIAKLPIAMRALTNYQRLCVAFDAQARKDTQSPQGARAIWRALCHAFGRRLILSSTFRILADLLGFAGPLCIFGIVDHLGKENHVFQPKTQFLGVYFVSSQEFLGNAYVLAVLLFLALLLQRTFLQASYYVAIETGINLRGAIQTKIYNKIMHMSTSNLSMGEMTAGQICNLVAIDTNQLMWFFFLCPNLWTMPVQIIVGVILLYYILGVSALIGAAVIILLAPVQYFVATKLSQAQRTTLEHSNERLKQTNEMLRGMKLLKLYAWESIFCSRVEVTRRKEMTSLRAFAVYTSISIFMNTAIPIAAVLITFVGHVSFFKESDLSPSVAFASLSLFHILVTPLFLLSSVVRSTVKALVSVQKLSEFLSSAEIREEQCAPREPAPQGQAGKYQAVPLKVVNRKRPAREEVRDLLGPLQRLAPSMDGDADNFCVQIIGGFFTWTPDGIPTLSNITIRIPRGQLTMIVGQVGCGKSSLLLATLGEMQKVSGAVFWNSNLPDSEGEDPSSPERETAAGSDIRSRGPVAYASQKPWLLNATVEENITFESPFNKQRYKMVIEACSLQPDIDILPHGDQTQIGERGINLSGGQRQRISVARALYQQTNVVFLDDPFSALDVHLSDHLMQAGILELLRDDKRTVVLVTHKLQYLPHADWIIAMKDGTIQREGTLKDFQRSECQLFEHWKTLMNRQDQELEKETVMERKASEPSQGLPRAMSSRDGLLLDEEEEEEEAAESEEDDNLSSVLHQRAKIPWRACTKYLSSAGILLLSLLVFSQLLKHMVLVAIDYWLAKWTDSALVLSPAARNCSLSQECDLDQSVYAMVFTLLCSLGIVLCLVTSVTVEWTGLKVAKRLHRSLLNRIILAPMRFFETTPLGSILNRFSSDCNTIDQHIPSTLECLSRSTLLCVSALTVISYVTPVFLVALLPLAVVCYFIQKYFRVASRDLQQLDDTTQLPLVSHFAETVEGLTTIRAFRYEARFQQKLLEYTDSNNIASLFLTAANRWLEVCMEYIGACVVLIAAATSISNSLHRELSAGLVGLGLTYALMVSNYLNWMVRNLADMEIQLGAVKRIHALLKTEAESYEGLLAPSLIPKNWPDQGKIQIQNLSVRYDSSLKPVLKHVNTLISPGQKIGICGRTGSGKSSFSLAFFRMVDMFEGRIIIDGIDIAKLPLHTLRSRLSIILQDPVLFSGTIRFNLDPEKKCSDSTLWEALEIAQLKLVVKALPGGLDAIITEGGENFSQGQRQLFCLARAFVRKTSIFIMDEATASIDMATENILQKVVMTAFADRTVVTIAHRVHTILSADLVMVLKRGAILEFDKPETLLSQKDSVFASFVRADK", "test": "In vitro binding affinity to rodent KATP channels: SUR1 ([3H]glibenclamide displacement, COS cell membranes)", "description": "1. In Vitro Binding Affinity of the Test Compounds to Rodent KATP Channels\nCompetitive binding experiments were performed to characterize the affinity of the test compounds for the binding sites for sulfonylureas and KATP channel openers (KCOS) on hamster SUR1. To assess the affinity for the sulfonylurea site, membranes from COS-cells transiently expressing hamster SUR1 were incubated in the presence of [^3H]glibenclamide with increasing concentrations of test compounds. […] For each test compound four displacement curves were measured (+/−MgATP from the human and hamster isoform). Per curve 9-15 distinct concentrations were tested covering the relevant range. All measurements were repeated at least 5 times in independent experiments.\n(§1) [^3H]glibenclamide (specific activity 51 Ci mmol^−1) was obtained from NEN (Dreieich, Germany). Where needed, stock solutions were prepared in dimethylsulfoxide with a final solvent concentration in the media below 1%.\n(§2) SUR- or Kir6.x isoforms were used either subcloned in the pcDNA (hamster SUR1, mouse Kir6.2) or pCMV vector (rat SUR2A, SUR2B).\n(§3) For transfection, the cells were incubated 4 hours in a Tris-buffered salt solution containing DNA (5-10 μg/ml) plus DEAE-dextran (1 mg/ml), 2 min in HEPES-buffered salt solution plus dimethylsulfoxide (10%) and 4 hours in DMEM-HG plus chloroquine (100 μM). Cells were then returned to DMEM-HG plus 10% FCS. […] For binding experiments, resuspended membranes (final protein concentration 5-50 μg/ml) were incubated in “Tris-buffer” (50 mM, pH 7.4) containing either [^3H]glibenclamide (final concentration 0.3 nM or 3 nM and nonspecific binding defined by 100 nM or 1 μM glibenclamide for SUR1 or SUR2Y1205S-isoforms, respectively) or [^3H]P1075 (final concentration 3 nM, nonspecific binding defined by 100 μM pinacidil) and increasing concentrations of the test compounds. The free Mg^2+ concentration were kept close to 0.7 mM. […] Incubations were carried out for 1 h at room temperature and were terminated by rapid filtration through Whatman GF/B filters.\n(§4) The inhibition constant (Ki value) of the test substances was calculated from the respective IC50 value, and was stated as the negative logarithmic value thereof (pKi)."}, "rat SUR2A": {"biological_target": "rat SUR2A (Rattus norvegicus, UniProt Q63563)", "sequence (Q63563 whole entry)": "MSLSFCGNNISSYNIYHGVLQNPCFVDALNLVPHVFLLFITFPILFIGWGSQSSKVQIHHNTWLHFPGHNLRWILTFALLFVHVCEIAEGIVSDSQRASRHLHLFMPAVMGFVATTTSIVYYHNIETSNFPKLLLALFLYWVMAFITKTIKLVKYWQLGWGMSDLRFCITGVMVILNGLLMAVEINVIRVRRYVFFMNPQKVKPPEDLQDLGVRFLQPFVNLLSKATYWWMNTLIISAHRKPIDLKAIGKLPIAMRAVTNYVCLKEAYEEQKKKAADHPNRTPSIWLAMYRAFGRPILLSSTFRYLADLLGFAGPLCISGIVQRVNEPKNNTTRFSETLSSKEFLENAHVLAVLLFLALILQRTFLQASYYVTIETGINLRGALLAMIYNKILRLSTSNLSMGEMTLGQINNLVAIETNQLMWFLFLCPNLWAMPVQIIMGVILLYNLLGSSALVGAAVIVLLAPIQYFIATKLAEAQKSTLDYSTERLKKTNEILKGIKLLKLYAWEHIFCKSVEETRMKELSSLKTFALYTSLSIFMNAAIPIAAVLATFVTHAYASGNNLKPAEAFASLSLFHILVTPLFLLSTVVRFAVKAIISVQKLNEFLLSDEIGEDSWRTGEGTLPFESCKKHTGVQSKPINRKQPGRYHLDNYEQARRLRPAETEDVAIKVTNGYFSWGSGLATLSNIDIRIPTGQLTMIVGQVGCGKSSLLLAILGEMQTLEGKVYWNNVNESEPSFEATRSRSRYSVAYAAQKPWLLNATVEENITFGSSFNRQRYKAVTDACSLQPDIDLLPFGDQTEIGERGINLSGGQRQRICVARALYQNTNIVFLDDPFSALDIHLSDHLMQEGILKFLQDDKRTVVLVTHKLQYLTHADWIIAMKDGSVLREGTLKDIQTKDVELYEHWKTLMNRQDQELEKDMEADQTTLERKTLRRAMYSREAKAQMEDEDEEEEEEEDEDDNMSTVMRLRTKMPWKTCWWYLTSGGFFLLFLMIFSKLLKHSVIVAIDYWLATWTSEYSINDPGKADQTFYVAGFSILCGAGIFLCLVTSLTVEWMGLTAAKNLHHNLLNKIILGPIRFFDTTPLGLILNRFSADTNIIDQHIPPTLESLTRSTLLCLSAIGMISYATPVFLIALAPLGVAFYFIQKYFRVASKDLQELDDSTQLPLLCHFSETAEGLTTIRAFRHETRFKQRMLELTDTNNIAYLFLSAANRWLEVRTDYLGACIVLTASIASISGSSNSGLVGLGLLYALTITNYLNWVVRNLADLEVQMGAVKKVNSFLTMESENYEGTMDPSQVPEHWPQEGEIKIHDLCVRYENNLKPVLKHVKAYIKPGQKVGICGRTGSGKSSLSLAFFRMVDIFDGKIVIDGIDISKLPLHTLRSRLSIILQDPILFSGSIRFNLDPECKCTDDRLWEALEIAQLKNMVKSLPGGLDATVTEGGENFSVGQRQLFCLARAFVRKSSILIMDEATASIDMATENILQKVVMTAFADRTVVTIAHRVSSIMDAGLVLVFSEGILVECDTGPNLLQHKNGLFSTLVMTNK", "test": "In vitro binding affinity to rodent KATP channels: SUR2A ([3H]P1075 / [3H]glibenclamide displacement, COS cell membranes)", "description": "Therefore, two strategies can be used to detect binding to the sulfonylurea site on SUR2A.\nMembranes from COS-cells transiently expressing rat SUR2A were incubated in the presence of the radioligands with increasing concentrations of test compounds as described above. […] For each test compound four displacement curves were measured (displacement of [^3H]P1075 from the rat isoform of the wild type receptor and displacement of [^3H]glibenclamide from the rat isoform of SUR2AY1205S). Per curve 9-15 distinct concentrations were tested covering the relevant range. All measurements were repeated at least 5 times in independent experiments.\nas §1, §2, §3, §4"}, "[2]": {"conditions": "hamster SUR1 in COS cell membranes, read-out: Affinity to SUR 1 (converted)"}, "[3]": {"conditions": "cloned human CB2 receptor expressed in CHO cells, read-out: Affinity to CB2 (converted)"}, "[4]": {"conditions": "rat SUR2A in COS cell membranes"}}, "note": "Read-outs that look alike come from different tables or passages of the source."}
{"smiles": "N/C(=N\\S(=O)(=O)c1ccc(Cl)cc1)N1C[C@@H](c2ccccc2)C(c2ccc(Cl)cc2)=N1", "note": "(stereo in doubt) [N-{Amino-[3-(4-chloro-phenyl)-4-phenyl-4,5-dihydro-pyrazol-1-yl]-methylene}-4-chloro-benzenesulfonamide]", "values": [{"measurement": "Ki", "setting": "[1]", "result": 158, "unit": "nM"}, {"measurement": "Ki", "setting": "hamster SUR1; [2]", "result": 0.794, "unit": "µM"}, {"measurement": "pKi", "setting": "rat SUR2A", "result": 5.4}]}
{"smiles": "CCc1c(C(=O)NC2CCCCC2)nc(-c2ccc(Cl)cc2Cl)n1-c1ccc(Br)cc1", "note": "[1-(4-Bromo-phenyl)-2-(2,4-dichloro-phenyl)-5-ethyl-1H-imidazole-4-carboxylic acid cyclohexylamide]", "values": [{"measurement": "Ki", "setting": "[1]; [3]", "result": 200, "unit": "nM"}, {"measurement": "Ki", "setting": "hamster SUR1; [2]", "result": 100, "unit": "µM"}, {"measurement": "pKi", "setting": "rat SUR2A", "result": 5.1}]}
{"smiles": "O=C(NN1CCCCC1)c1cn(-c2ccc(Cl)cc2)c(-c2ccc(Cl)cc2Cl)n1", "note": "[1-(4-Chloro-phenyl)-2-(2,4-dichloro-phenyl)-1H-imidazole-4-carboxylic acid piperidin-1-ylamide]", "values": [{"measurement": "Ki", "setting": "[1]; [3]", "result": 631, "unit": "nM"}, {"measurement": "Ki", "setting": "hamster SUR1; [2]", "result": 31.6, "unit": "µM"}, {"measurement": "pKi", "setting": "rat SUR2A", "result": 5.3}]}
{"smiles": "CCc1c(C(=O)NN2CCCCC2)nc(-c2ccc(Cl)cc2Cl)n1-c1ccc(Cl)cc1", "note": "[1-(4-Chloro-phenyl)-2-(2,4-dichloro-phenyl)-5-ethyl-1H-imidazol-4-carboxylic acid piperidin-1-ylamide]", "values": [{"measurement": "Ki", "setting": "[1]", "result": 501, "unit": "nM"}, {"measurement": "Ki", "setting": "hamster SUR1; [2]", "result": 5.01, "unit": "µM"}, {"measurement": "pKi", "setting": "rat SUR2A", "result": 5.5}]}
{"smiles": "O=C(NN1CCCCC1)c1nc(-c2ccc(Cl)cc2Cl)n(-c2ccc(Cl)cc2)c1CF", "note": "[1-(4-Chloro-phenyl)-2-(2,4-dichloro-phenyl)-5-fluoromethyl-1H-imidazole-4-carboxylic acid piperidin-1-ylamide]", "values": [{"measurement": "Ki", "setting": "[1]; [3]", "result": 794, "unit": "nM"}, {"measurement": "Ki", "setting": "hamster SUR1; [2]", "result": 6.31, "unit": "µM"}, {"measurement": "pKi", "setting": "rat SUR2A", "result": 5.5}]}
{"smiles": "O=C(NN1CCCCC1)c1nc(-c2ccc(Cl)cc2Cl)n(-c2ccc(Cl)cc2)c1CO", "note": "[1-(4-Chloro-phenyl)-2-(2,4-dichloro-phenyl)-5-hydroxymethyl-1H-imidazole-4-carboxylic acid piperidin-1-ylamide]", "values": [{"measurement": "Ki", "setting": "[1]; [3]", "result": 631, "unit": "nM"}, {"measurement": "Ki", "setting": "hamster SUR1; [2]", "result": 100, "unit": "µM"}, {"measurement": "pKi", "setting": "rat SUR2A", "result": 4.7}]}
{"smiles": "Cc1c(C(=O)NN2CCCCCC2)nc(-c2ccc(Cl)cc2Cl)n1-c1ccc(Cl)cc1", "note": "[1-(4-Chloro-phenyl)-2-(2,4-dichloro-phenyl)-5-methyl-1H-imidazole-4-carboxylic acid azepan-1-ylamide]", "values": [{"measurement": "Ki", "setting": "[1]; [3]", "result": 25.1, "unit": "nM"}, {"measurement": "Ki", "setting": "hamster SUR1; [2]", "result": 6.31, "unit": "µM"}, {"measurement": "pKi", "setting": "rat SUR2A", "result": 5.7}]}
{"smiles": "CSc1c(C(=O)NC2CCCCC2)nc(-c2ccc(Cl)cc2Cl)n1-c1ccc(Cl)cc1", "note": "[1-(4-Chloro-phenyl)-2-(2,4-dichloro-phenyl)-5-methylsulfanyl-1H-imidazole-4-carboxylic acid cyclohexylamide]", "values": [{"measurement": "Affinity to CB2", "setting": "[1]", "result": 6.6}, {"measurement": "Ki", "setting": "hamster SUR1; [2]", "result": 0.501, "unit": "µM"}, {"measurement": "pKi", "setting": "rat SUR2A; [4]", "result": 5.8}]}
{"smiles": "CSc1c(C(=O)NN2CCCCC2)nc(-c2ccc(Cl)cc2Cl)n1-c1ccc(Cl)cc1", "note": "[1-(4-Chloro-phenyl)-2-(2,4-dichloro-phenyl)-5-methylsulfanyl-1H-imidazole-4-carboxylic acid piperidin-1-ylamide]", "values": [{"measurement": "Ki", "setting": "[1]; [3]", "result": 1000, "unit": "nM"}, {"measurement": "Ki", "setting": "hamster SUR1; [2]", "result": 7.94, "unit": "µM"}, {"measurement": "pKi", "setting": "rat SUR2A", "result": 5.6}]}
{"smiles": "CCc1c(C(=O)NC2CCCCC2)nc(-c2ncccc2C)n1-c1ccc(Cl)cc1", "note": "[1-(4-Chloro-phenyl)-5-ethyl-2-(3-methyl-pyridin-2-yl)-1H-imidazole-4-carboxylic acid cyclohexylamide]", "values": [{"measurement": "Ki", "setting": "[1]", "result": 794, "unit": "nM"}, {"measurement": "Ki", "setting": "hamster SUR1", "result": 100, "unit": "µM"}, {"measurement": "pKi", "setting": "rat SUR2A", "result": 5.5}]}
{"smiles": "CCc1c(C(=O)NN2CCCCC2)nc(-c2ncccc2C)n1-c1ccc(Cl)cc1", "note": "[1-(4-Chloro-phenyl)-5-ethyl-2-(3-methyl-pyridin-2-yl)-1H-imidazole-4-carboxylic acid piperidin-1-ylamide]", "values": [{"measurement": "Ki", "setting": "[1]; [3]", "result": 251, "unit": "nM"}, {"measurement": "Ki", "setting": "hamster SUR1; [2]", "result": 100, "unit": "µM"}, {"measurement": "pKi", "setting": "rat SUR2A", "result": 4.8}]}
{"smiles": "N=C(N)C1=NN(c2ccc(Cl)cc2)C(c2ccccc2)C1", "note": "(stereo not drawn) [1-(4-Chloro-phenyl)-5-phenyl-4,5-dihydro-1H-pyrazole-3-carboxamidine]", "values": [{"measurement": "Ki", "setting": "[1]; [3]", "result": 501, "unit": "nM"}, {"measurement": "Ki", "setting": "hamster SUR1; [2]", "result": 100, "unit": "µM"}, {"measurement": "pKi", "setting": "rat SUR2A", "result": 4.0}]}
{"smiles": "CCc1c(C(=O)NC2CCCCC2)nc(-c2ccc(C)n2C)n1-c1ccccc1", "note": "[2-(1,5-Dimethyl-1H-pyrrol-2-yl)-5-ethyl-1-phenyl-1H-imidazole-4-carboxylic acid cyclohexylamide]", "values": [{"measurement": "Ki", "setting": "[1]; [3]", "result": 158, "unit": "nM"}, {"measurement": "Ki", "setting": "hamster SUR1; [2]", "result": 100, "unit": "µM"}, {"measurement": "pKi", "setting": "rat SUR2A; [4]", "result": 4.0}]}
